SMILES strings stand for the structures. Active and inactive are the calls of the source. No cut-off for these calls is given here. A value given as a limit tells only on which side of the number the result lay.

The text below walks through data of ChEMBL document CHEMBL1938325, “Synthesis of new 5,6-dihydrobenzo[h]quinazoline 2,4-diamino substituted and antiplatelet/antiphlogistic activities evaluation” (Bioorg Med Chem Lett, 2012).

Data set [1] has as its system Rattus norvegicus. The experiment in a line: Antiphlogistic activity in Wistar rat assessed as inhibition of carrageenan-induced paw oedema at 10 mg/kg, po. The format is functional. In general terms: The carrageenan paw model is a standard test of acute inflammation.
Data set [2] can be described thus: Antiplatelet activity against guinea pig platelet-rich plasma assessed as inhibition of arachidonic acid-induced platelet aggregation measured within 3 hrs by turbidimetric method. The format is functional. To be noted: Cavia porcellus.
Data set [3] has as its system Platelet. The experiment in a line: Antiplatelet activity against guinea pig platelet-rich plasma assessed as inhibition of ADP-induced platelet aggregation up to 500 uM measured within 3 hrs by turbidimetric method. The format is functional. To be noted: Cavia porcellus.
For data set [4], the system named is Platelet. The experiment in a line: Antiplatelet activity against guinea pig platelet-rich plasma assessed as inhibition of U46619-induced platelet aggregation up to 500 uM measured within 3 hrs by turbidimetric method. The format is functional. To be noted: Cavia porcellus.
Data set [5] concerns Mus musculus. Put plainly: Antinociceptive activity in Swiss mouse assessed as inhibition of acetic acid induced writhing at 100 mg/kg, po measured every 5 mins for 45 mins. The format is functional. (Writhing tests count abdominal constrictions after an irritant is injected.)
The test system of data set [6] is Mus musculus. Put plainly: Antinociceptive activity in Swiss mouse assessed as inhibition of acetic acid induced writhing at 50 mg/kg, po measured every 5 mins for 45 mins. The format is functional.
Data set [7] deals with Rattus norvegicus. The experiment in a line: Antiphlogistic activity in Wistar rat assessed as inhibition of carrageenan-induced paw oedema at 100 mg/kg, po. The class given is functional.
Data set [8] relates to Rattus norvegicus. Put plainly: Antiphlogistic activity in Wistar rat assessed as inhibition of carrageenan-induced paw oedema at 50 mg/kg, po. The format is functional.
The nature of data set [9]: Antiplatelet activity against guinea pig platelet-rich plasma assessed as inhibition of ADP-induced platelet aggregation measured within 3 hrs by turbidimetric method. The note with it: Cavia porcellus. The class given is functional.
Data set [10] deals with Rattus norvegicus. The experiment in a line: Antiphlogistic activity in Wistar rat assessed as inhibition of carrageenan-induced paw oedema at 25 mg/kg, po. The class given is functional.
Data set [11] in a line: Antiplatelet activity against guinea pig platelet-rich plasma assessed as inhibition of U46619-induced platelet aggregation measured within 3 hrs by turbidimetric method. The format is functional. The note with it: Cavia porcellus.
For data set [12], the target named is T1, Prostaglandin G/H synthase 2 (Homo sapiens) (UniProt P35354).
T1 sequence (whole entry): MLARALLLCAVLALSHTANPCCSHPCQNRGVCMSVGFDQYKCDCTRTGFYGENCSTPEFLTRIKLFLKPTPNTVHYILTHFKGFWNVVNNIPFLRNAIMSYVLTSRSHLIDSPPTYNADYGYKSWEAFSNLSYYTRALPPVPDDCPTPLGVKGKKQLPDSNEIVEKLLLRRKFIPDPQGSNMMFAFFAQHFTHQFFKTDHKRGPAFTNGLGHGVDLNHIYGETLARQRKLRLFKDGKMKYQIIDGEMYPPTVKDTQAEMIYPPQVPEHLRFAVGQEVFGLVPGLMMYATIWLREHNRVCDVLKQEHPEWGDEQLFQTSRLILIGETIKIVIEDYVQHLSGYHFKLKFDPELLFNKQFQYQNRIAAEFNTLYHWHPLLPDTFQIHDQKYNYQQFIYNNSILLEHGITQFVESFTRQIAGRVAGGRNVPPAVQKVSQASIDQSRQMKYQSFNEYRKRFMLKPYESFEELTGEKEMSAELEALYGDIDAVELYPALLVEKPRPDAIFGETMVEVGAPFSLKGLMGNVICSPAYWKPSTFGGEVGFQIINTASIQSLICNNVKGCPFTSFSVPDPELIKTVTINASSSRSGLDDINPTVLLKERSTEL
Put plainly: Inhibition of COX-2 at 1 mM.

The target in data set [13] is Prostaglandin G/H synthase 1 (Homo sapiens) (UniProt P23219). Put plainly: Inhibition of COX-1 at 1 mM.
For data set [14], the system named is Mus musculus. The experiment in a line: Toxicity in Swiss mouse assessed as effect on spontaneous locomotion activity at 25 to 100 mg/kg, po by classic open filed test. To be noted: in vivo. On the set-up: dose 25-100 mg/kg, route oral. The format is organism-based.
The subject of data set [15] is Mus musculus. Put plainly: Antinociceptive activity in Swiss mouse assessed as inhibition of acetic acid induced writhing at 25 mg/kg, po measured every 5 mins for 45 mins. The format is functional.
Data set [16] concerns Mus musculus. The experiment in a line: Toxicity in Swiss mouse assessed as sedation at 25 to 100 mg/kg, po. The format is organism-based. On the set-up: dose 25-100 mg/kg, route oral. The note with it: in vivo.

Sequence of Prostaglandin G/H synthase 1 (Homo sapiens) (P23219 whole entry): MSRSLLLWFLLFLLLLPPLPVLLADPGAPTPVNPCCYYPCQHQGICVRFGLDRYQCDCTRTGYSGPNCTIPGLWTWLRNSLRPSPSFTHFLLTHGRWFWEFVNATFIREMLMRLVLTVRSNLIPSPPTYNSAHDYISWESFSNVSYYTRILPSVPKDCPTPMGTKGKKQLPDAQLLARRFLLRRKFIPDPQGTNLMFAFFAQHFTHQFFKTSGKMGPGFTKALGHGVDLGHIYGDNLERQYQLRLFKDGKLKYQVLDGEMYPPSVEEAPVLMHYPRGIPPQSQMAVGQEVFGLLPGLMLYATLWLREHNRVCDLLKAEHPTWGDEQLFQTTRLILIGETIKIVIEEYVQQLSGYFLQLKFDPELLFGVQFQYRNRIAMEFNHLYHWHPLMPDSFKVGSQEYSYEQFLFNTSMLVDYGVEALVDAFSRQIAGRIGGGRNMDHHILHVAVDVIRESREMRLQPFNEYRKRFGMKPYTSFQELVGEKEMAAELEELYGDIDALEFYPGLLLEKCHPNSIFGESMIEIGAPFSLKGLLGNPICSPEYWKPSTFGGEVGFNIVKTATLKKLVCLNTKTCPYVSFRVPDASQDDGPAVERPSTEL

The term inhibition in vivo denotes the change of the read-out against control, counted positive when it falls. `COc1ccc2c(c1)c(CC(=O)O)c(C)n2C(=O)c1ccc(Cl)cc1` [INDOMETHACIN]: the inhibition in vivo at 10 mg/kg in the data set with Rattus norvegicus [1] was determined as 45%.
What is called IC50 is the midpoint of a concentration-inhibition curve. Regarding `Nc1nc(NCCc2ccccc2)c2c(n1)-c1ccccc1CC2`, the IC50 in [2] worked out at 89 µM. The inhibition result in the data set on Platelet [3] and with Platelet [4] was “inactive” throughout. The inhibition in vivo at 100 mg/kg amounted to 54% with Mus musculus [5] and 19% in the data set on Rattus norvegicus [7]. Besides, the results for the inhibition in vivo at 50 mg/kg in the data set with Mus musculus [6] and in the data set on Rattus norvegicus [8] were 32% and 20%, respectively.
With `CNc1nc(Nc2ccccc2)c2c(n1)-c1ccccc1CC2`, the IC50 in data set [2] came to 105 µM. The inhibition entry in the data set with Platelet [3] and in the data set on Platelet [4] was “inactive” each time. In addition, the results for the inhibition in vivo at 100 mg/kg in the data set with Mus musculus [5] and with Rattus norvegicus [7] were 54% and 5%, respectively. Besides, in the data set on Mus musculus [6], the inhibition in vivo at 50 mg/kg worked out at 0%.
As to `Nc1nc2c(c(N3CCCC3)n1)CCc1ccccc1-2`, the IC50 in data set [2] came out at 166 µM; in data set [9], 307 µM. Also, the inhibition entry in the data set on Platelet [4] is “inactive”. Moreover, the figures for the inhibition in vivo at 100 mg/kg in the data set on Mus musculus [5] and in the data set on Rattus norvegicus [7] were 30% and 42%, respectively. The inhibition in vivo at 50 mg/kg in the data set with Rattus norvegicus [8] was found to be 42%. For the same compound, in the data set with Rattus norvegicus [10], the inhibition in vivo at 25 mg/kg amounted to 0%.
Consider `CC(=O)Oc1ccccc1C(=O)O` [ASPIRIN], for which the IC50 in [2] was 45 µM; in data set [9], > 500 µM. Besides, the inhibition result in the data set on Platelet [4] was “inactive”.
As to `Nc1nc2c(c(N3CCCCC3)n1)CCc1ccccc1-2`, the IC50 was determined as 68 µM in [2], 336 µM in data set [9] and 385 µM in [11]. In addition, the figures for the inhibition in vivo at 100 mg/kg in the data set on Mus musculus [5] and with Rattus norvegicus [7] were 0% and 31%, respectively. Besides, the inhibition in vivo at 50 mg/kg in the data set on Rattus norvegicus [8] was 41%. Besides, in the data set on Rattus norvegicus [10], the inhibition in vivo at 25 mg/kg is 0%.
For the compound `Nc1nc(NCc2ccccc2)c2c(n1)-c1ccccc1CC2`, the IC50 in data set [2] worked out at 200 µM. Besides, the inhibition result with Platelet [3] and in the data set on Platelet [4] was “inactive” throughout. In addition, the inhibition in vivo at 100 mg/kg in the data set on Mus musculus [5] is 62%; in the data set on Rattus norvegicus [7] it was 23%. Besides, the inhibition in vivo at 50 mg/kg in the data set on Mus musculus [6] worked out at 8%.
With `Nc1nc(Nc2ccccc2)c2c(n1)-c1ccccc1CC2`, the IC50 in data set [2] is 89 µM; in [9], 311 µM; in data set [11], 205 µM. Moreover, the results for the inhibition in vivo at 100 mg/kg in the data set with Mus musculus [5] and in the data set on Rattus norvegicus [7] were 15% and 54%, respectively. In addition, in the data set on Rattus norvegicus [8], the inhibition in vivo at 50 mg/kg worked out at 53%. In the data set with Rattus norvegicus [10], the inhibition in vivo at 25 mg/kg is 0%. Moreover, the Imax in [12] amounted to 38.6%; in data set [13], 50.5%.
With `Nc1nc2c(c(N3CCOCC3)n1)CCc1ccccc1-2`, the half-maximal inhibitory concentration (IC50) was 224 µM in [2] and 341 µM in data set [9]. Also, in the data set with Platelet [4], the inhibition result is “inactive”. The inhibition in vivo at 100 mg/kg was 19% with Mus musculus [5] and 40% in the data set with Rattus norvegicus [7]. In addition, the inhibition in vivo at 50 mg/kg in the data set on Rattus norvegicus [8] amounted to 0%.
Turning to `CN(C)c1nc(Nc2ccccc2)c2c(n1)-c1ccccc1CC2`, the IC50 was 46 µM in data set [2] and > 500 µM in data set [9]. The Activity result in the data set on Mus musculus [14] and in the data set with Mus musculus [16] was “Non-toxic” each time. For the same compound, the inhibition result in the data set on Platelet [4] was “inactive”. The values for the inhibition in vivo at 100 mg/kg in the data set on Mus musculus [5] and in the data set on Rattus norvegicus [7] were 64% and 0%, respectively. Besides, the inhibition in vivo at 50 mg/kg in the data set with Mus musculus [6] stood at 51%. In the data set on Mus musculus [15], the inhibition in vivo at 25 mg/kg worked out at 0%. Also, the results for the Imax in data set [12] and in data set [13] were 50.7% and 28.7%, respectively.
